Experimental data taken from paper PMC7496508, “Modular Medical Imaging Agents Based on Azide–Alkyne Huisgen Cycloadditions: Synthesis and Pre‐Clinical Evaluation of ^18F‐Labeled PSMA‐Tracers for Prostate Cancer Imaging” (Chemistry (Weinheim an Der Bergstrasse, Germany), 2020).
Where “and” joins values, the source holds several entries; their conditions need not be identical. Equal entries are not always repeated.

Experiment: distribution coefficient logD, n-octanol/PBS
Format: physicochemical
Procedure: page 19: Figure S3: HPLC purification of [18F]PSMA-MIC02 (A) and after 4 h (B). 5. Distribution coefficient LogD. […] cup. 100 µL of the formulated final solution of [18F]PSMA-MIC01 or [18F]PSMA-MIC02 was added and vortexed for 1 minute and centrifuged for 5 min at […]. The different layers were separated and 100 µL of each layer were measured on a γ-counter. Based on the counts per minute (CPM) of each fraction, the partition coefficient was measured with the following formula: log(CPMoctanol/CPMPBS). The obtained data are as followed. Table S2. Counts per minute (CPM) of the 3 indidicually measured triplicates of [18F]PSMA-MIC01 of n- octanol and PBS. Octanol (CPM) PBS (CPM) BLK (CPM) LogD Mean SD […] No 1.2 2823.43 2715328.33 93.59 -2.99 […] No 2.3 394.49 640463.84 93.59 -3.21 […] No 3.2 3690.69 2357291.58 50.84 -2.81 No 3.3 5848.38 3956671.48 52.31 -2.83 -3.01 0.22 18 (1 picture or pasted object on this page, not shown here)

logD (n-octanol/PBS, pH 7.4, n-octanol/PBS pH 7.4, overall mean): -3.01 ± 0.22
Structure (SMILES): O=C(O)CC[C@H](NC(=O)N[C@@H](CCCCNC(=O)c1ccc(-c2cn(CCOCCOCC[18F])nn2)cc1)C(=O)O)C(=O)O [[^18F]PSMA‐MIC01]
LogD, individual measurements (n-octanol/PBS pH 7.4, single measurements): -3.03 and -2.99 and -3.02 and -3.27 and -3.20 and -3.21 and -2.72 and -2.81 and -2.83
